Experimental data taken from patent publication US20210196751A1, “METHODS OF CANCER TREATMENT USING AN ATR INHIBITOR” (Vertex Pharmaceuticals Incorporated, priority 2017, published 2021).

Test system: panel of 552 cancer cell lines
Experiment: Growth inhibition (ATPLite) of ATR inhibitor in combination with cisplatin or gemcitabine; synergy score from AUC difference
Assay type: cell-based
Settings: 96 hours; for synergy when combined with cisplatin: in combination with cisplatin; for synergy when combined with gemcitabine: in combination with gemcitabine
Procedure: Cell Culture Methods. Cells were removed from liquid nitrogen storage, thawed and expanded in appropriate growth media. Once expanded, cells were seeded in 384-well tissue culture treated plates at 500 cells per well. […] At the end of either 0 hours or 96 hours, cell status was analyzed using ATPLite (adenosine triphosphate monitoring system; Perkin Elmer) to assess the biological response of cells to drug combinations.
In this study, growth inhibition (GI) was used as the primary endpoint. ATP monitoring was performed using ATPLite, which allows for the monitoring of cytocidal, cytostatic and proliferative effects of drugs on cells.
Data Analysis to Assess Synergy of Combination Treatments. […] Synergy was evaluated using the sum of the AUC (Area Under the Curve) difference.
Briefly, combination treatment effect was calculated as the AUC normalized to the single agent effect of the ATR inhibitor compound. Total synergy or antagonism was calculated as the difference between the normalized combination AUC and the genotoxin single agent AUC. As before, the synergy score was normalized by dividing the total synergy score by the total number of regimens used.

SMILES | synergy when combined with cisplatin | synergy when combined with gemcitabine
CNCc1ccc(-c2cc(-c3nc(-c4ccc(S(=O)(=O)C(C)C)cc4)cnc3N)on2)cc1 [IIA-7] | synergistic | synergistic
Nc1nn2cc(F)cnc2c1C(=O)Nc1cncc(F)c1N1CCC(C(=O)N2CCN(C3COC3)CC2)CC1 [I-G-32] | synergistic | synergistic
